# From article PMC8518114, “Safety, tolerability and pharmacokinetics of emodepside, a potential novel treatment for onchocerciasis (river blindness), in healthy male subjects” (British Journal of Clinical Pharmacology, 2021)
# Tested on: healthy male subjects
# Assay: Safety: treatment-emergent adverse events, SAD study
# Format: in vivo, human
# Description: Safety was assessed by monitoring adverse events (AEs) throughout the studies that were coded using the standard Medical Dictionary for Regulatory Activities (MedDRA) dictionary (versions 19.0 [SAD part 1], 20.0 [SAD part 2] and 21.1 [MAD]). Other safety monitoring included 12‐lead electrocardiography recordings, measurement of vital signs (systolic and diastolic blood pressure and heart rate), physical and neurological (Hamilton depression rating scale[17] and Beck depression inventory‐II fastscreen[18] [SAD only], mental status examination, cranial nerves assessment and motor system examination, sensation to light touch, coordination/cerebellar function assessment, Romberg's test, gait test, daytime sleepiness assessment [SAD and MAD studies]) examinations, haematology, biochemistry and urinalysis. To minimise risks in the SAD and MAD studies, subjects were dosed sequentially using sentinels in each cohort (1 IP, 1 placebo) as per European Medicines Agency guidelines.[19] If the previous dose was well tolerated, with no safety concerns, dose escalation was decided by the Safety Review Group after reviewing safety and PK data from all available cohorts. Moreover, treatment with the highest dose in the SAD study was repeated (cohort 10) for regular ophthalmological evaluations (assessments available as supplementary information) to better characterise visual AEs observed in the SAD study. Regular ophthalmological assessments were also performed in the MAD study.
# [1] = SAD Part 2, 10 mg LSF (fed) n = 6
# [2] = SAD Part 2, 40 mg LSF (fasting) n = 6
structure (smiles),measurement,setting,value
CC(C)C[C@H]1C(=O)O[C@H](Cc2ccc(N3CCOCC3)cc2)C(=O)N(C)[C@@H](CC(C)C)C(=O)O[C@H](C)C(=O)N(C)[C@@H](CC(C)C)C(=O)O[C@H](Cc2ccc(N3CCOCC3)cc2)C(=O)N(C)[C@@H](CC(C)C)C(=O)O[C@H](C)C(=O)N1C [emodepside],Any TEAE,"SAD Part 1, 0.1 mg LSF n = 1",1 (100) n (%)
same,TEAE: Eye disorders,"SAD Part 1, 0.1 mg LSF n = 1",0 n (%)
same,TEAE: Gastrointestinal disorders,"SAD Part 1, 0.1 mg LSF n = 1",0 n (%)
same,TEAE: General disorders and administration site disorders,"SAD Part 1, 0.1 mg LSF n = 1",0 n (%)
same,TEAE: Infections and infestations,"SAD Part 1, 0.1 mg LSF n = 1",1 (100) n (%)
same,"TEAE: Injury, poisoning and procedural complications","SAD Part 1, 0.1 mg LSF n = 1",0 n (%)
same,TEAE: Musculoskeletal and connective tissue disorders,"SAD Part 1, 0.1 mg LSF n = 1",0 n (%)
same,TEAE: Nervous system disorders,"SAD Part 1, 0.1 mg LSF n = 1",0 n (%)
same,TEAE: Psychiatric disorders,"SAD Part 1, 0.1 mg LSF n = 1",0 n (%)
same,"TEAE: Respiratory, thoracic and mediastinal disorders","SAD Part 1, 0.1 mg LSF n = 1",0 n (%)
same,Any TEAE,"SAD Part 1, 1 mg LSF n = 5",3 (60.0) n (%)
same,TEAE: Eye disorders,"SAD Part 1, 1 mg LSF n = 5",0 n (%)
same,TEAE: Gastrointestinal disorders,"SAD Part 1, 1 mg LSF n = 5",0 n (%)
same,TEAE: General disorders and administration site disorders,"SAD Part 1, 1 mg LSF n = 5",0 n (%)
same,TEAE: Infections and infestations,"SAD Part 1, 1 mg LSF n = 5",0 n (%)
same,"TEAE: Injury, poisoning and procedural complications","SAD Part 1, 1 mg LSF n = 5",0 n (%)
same,TEAE: Musculoskeletal and connective tissue disorders,"SAD Part 1, 1 mg LSF n = 5",1 (20.0) n (%)
same,TEAE: Nervous system disorders,"SAD Part 1, 1 mg LSF n = 5",2 (40.0) n (%)
same,TEAE: Psychiatric disorders,"SAD Part 1, 1 mg LSF n = 5",0 n (%)
same,"TEAE: Respiratory, thoracic and mediastinal disorders","SAD Part 1, 1 mg LSF n = 5",0 n (%)
same,Any TEAE,"SAD Part 1, 2.5 mg LSF n = 6",0 n (%)
same,TEAE: Eye disorders,"SAD Part 1, 2.5 mg LSF n = 6",0 n (%)
same,TEAE: Gastrointestinal disorders,"SAD Part 1, 2.5 mg LSF n = 6",0 n (%)
same,TEAE: General disorders and administration site disorders,"SAD Part 1, 2.5 mg LSF n = 6",0 n (%)
same,TEAE: Infections and infestations,"SAD Part 1, 2.5 mg LSF n = 6",0 n (%)
same,"TEAE: Injury, poisoning and procedural complications","SAD Part 1, 2.5 mg LSF n = 6",0 n (%)
same,TEAE: Musculoskeletal and connective tissue disorders,"SAD Part 1, 2.5 mg LSF n = 6",0 n (%)
same,TEAE: Nervous system disorders,"SAD Part 1, 2.5 mg LSF n = 6",0 n (%)
same,TEAE: Psychiatric disorders,"SAD Part 1, 2.5 mg LSF n = 6",0 n (%)
same,"TEAE: Respiratory, thoracic and mediastinal disorders","SAD Part 1, 2.5 mg LSF n = 6",0 n (%)
same,Any TEAE,"SAD Part 1, 5 mg IRT n = 5",3 (60.0) n (%)
same,TEAE: Eye disorders,"SAD Part 1, 5 mg IRT n = 5",1 (20.0) n (%)
same,TEAE: Gastrointestinal disorders,"SAD Part 1, 5 mg IRT n = 5",0 n (%)
same,TEAE: General disorders and administration site disorders,"SAD Part 1, 5 mg IRT n = 5",0 n (%)
same,TEAE: Infections and infestations,"SAD Part 1, 5 mg IRT n = 5",0 n (%)
same,"TEAE: Injury, poisoning and procedural complications","SAD Part 1, 5 mg IRT n = 5",0 n (%)
same,TEAE: Musculoskeletal and connective tissue disorders,"SAD Part 1, 5 mg IRT n = 5",1 (20.0) n (%)
same,TEAE: Nervous system disorders,"SAD Part 1, 5 mg IRT n = 5",1 (20.0) n (%)
same,TEAE: Psychiatric disorders,"SAD Part 1, 5 mg IRT n = 5",1 (20.0) n (%)
same,"TEAE: Respiratory, thoracic and mediastinal disorders","SAD Part 1, 5 mg IRT n = 5",0 n (%)
same,Any TEAE,"SAD Part 1, 5 mg LSF n = 6",3 (50.0) n (%)
same,TEAE: Eye disorders,"SAD Part 1, 5 mg LSF n = 6",0 n (%)
same,TEAE: Gastrointestinal disorders,"SAD Part 1, 5 mg LSF n = 6",1 (16.7) n (%)
same,TEAE: General disorders and administration site disorders,"SAD Part 1, 5 mg LSF n = 6",2 (33.3) n (%)
same,TEAE: Infections and infestations,"SAD Part 1, 5 mg LSF n = 6",1 (16.7) n (%)
same,"TEAE: Injury, poisoning and procedural complications","SAD Part 1, 5 mg LSF n = 6",0 n (%)
same,TEAE: Musculoskeletal and connective tissue disorders,"SAD Part 1, 5 mg LSF n = 6",1 (16.7) n (%)
same,TEAE: Nervous system disorders,"SAD Part 1, 5 mg LSF n = 6",1 (16.7) n (%)
same,TEAE: Psychiatric disorders,"SAD Part 1, 5 mg LSF n = 6",0 n (%)
same,"TEAE: Respiratory, thoracic and mediastinal disorders","SAD Part 1, 5 mg LSF n = 6",0 n (%)
same,Any TEAE,"SAD Part 1, 10 mg LSF n = 6",5 (83.3) n (%)
same,TEAE: Eye disorders,"SAD Part 1, 10 mg LSF n = 6",2 (33.3) n (%)
same,TEAE: Gastrointestinal disorders,"SAD Part 1, 10 mg LSF n = 6",0 n (%)
same,TEAE: General disorders and administration site disorders,"SAD Part 1, 10 mg LSF n = 6",0 n (%)
same,TEAE: Infections and infestations,"SAD Part 1, 10 mg LSF n = 6",1 (16.7) n (%)
same,"TEAE: Injury, poisoning and procedural complications","SAD Part 1, 10 mg LSF n = 6",0 n (%)
same,TEAE: Musculoskeletal and connective tissue disorders,"SAD Part 1, 10 mg LSF n = 6",0 n (%)
same,TEAE: Nervous system disorders,"SAD Part 1, 10 mg LSF n = 6",1 (16.7) n (%)
same,TEAE: Psychiatric disorders,"SAD Part 1, 10 mg LSF n = 6",0 n (%)
same,"TEAE: Respiratory, thoracic and mediastinal disorders","SAD Part 1, 10 mg LSF n = 6",1 (16.7) n (%)
same,Any TEAE,"SAD Part 1, 20 mg IRT n = 6",2 (33.3) n (%)
same,TEAE: Eye disorders,"SAD Part 1, 20 mg IRT n = 6",0 n (%)
same,TEAE: Gastrointestinal disorders,"SAD Part 1, 20 mg IRT n = 6",1 (16.7) n (%)
same,TEAE: General disorders and administration site disorders,"SAD Part 1, 20 mg IRT n = 6",0 n (%)
same,TEAE: Infections and infestations,"SAD Part 1, 20 mg IRT n = 6",0 n (%)
same,"TEAE: Injury, poisoning and procedural complications","SAD Part 1, 20 mg IRT n = 6",0 n (%)
same,TEAE: Musculoskeletal and connective tissue disorders,"SAD Part 1, 20 mg IRT n = 6",1 (16.7) n (%)
same,TEAE: Nervous system disorders,"SAD Part 1, 20 mg IRT n = 6",1 (16.7) n (%)
same,TEAE: Psychiatric disorders,"SAD Part 1, 20 mg IRT n = 6",0 n (%)
same,"TEAE: Respiratory, thoracic and mediastinal disorders","SAD Part 1, 20 mg IRT n = 6",1 (16.7) n (%)
same,Any TEAE,"SAD Part 1, 20 mg LSF n = 6",3 (50.0) n (%)
same,TEAE: Eye disorders,"SAD Part 1, 20 mg LSF n = 6",1 (16.7) n (%)
same,TEAE: Gastrointestinal disorders,"SAD Part 1, 20 mg LSF n = 6",0 n (%)
same,TEAE: General disorders and administration site disorders,"SAD Part 1, 20 mg LSF n = 6",0 n (%)
same,TEAE: Infections and infestations,"SAD Part 1, 20 mg LSF n = 6",1 (16.7) n (%)
same,"TEAE: Injury, poisoning and procedural complications","SAD Part 1, 20 mg LSF n = 6",1 (16.7) n (%)
same,TEAE: Musculoskeletal and connective tissue disorders,"SAD Part 1, 20 mg LSF n = 6",0 n (%)
same,TEAE: Nervous system disorders,"SAD Part 1, 20 mg LSF n = 6",1 (16.7) n (%)
same,TEAE: Psychiatric disorders,"SAD Part 1, 20 mg LSF n = 6",0 n (%)
same,"TEAE: Respiratory, thoracic and mediastinal disorders","SAD Part 1, 20 mg LSF n = 6",1 (16.7) n (%)
same,Any TEAE,"SAD Part 1, 40 mg LSF n = 6",5 (83.3) n (%)
same,TEAE: Eye disorders,"SAD Part 1, 40 mg LSF n = 6",5 (83.3) n (%)
same,TEAE: Gastrointestinal disorders,"SAD Part 1, 40 mg LSF n = 6",0 n (%)
same,TEAE: General disorders and administration site disorders,"SAD Part 1, 40 mg LSF n = 6",0 n (%)
same,TEAE: Infections and infestations,"SAD Part 1, 40 mg LSF n = 6",1 (16.7) n (%)
same,"TEAE: Injury, poisoning and procedural complications","SAD Part 1, 40 mg LSF n = 6",0 n (%)
same,TEAE: Musculoskeletal and connective tissue disorders,"SAD Part 1, 40 mg LSF n = 6",1 (16.7) n (%)
same,TEAE: Nervous system disorders,"SAD Part 1, 40 mg LSF n = 6",3 (50.0) n (%)
same,TEAE: Psychiatric disorders,"SAD Part 1, 40 mg LSF n = 6",0 n (%)
same,"TEAE: Respiratory, thoracic and mediastinal disorders","SAD Part 1, 40 mg LSF n = 6",0 n (%)
same,Any TEAE,[1],3 (50.0) n (%)
same,TEAE: Eye disorders,[1],0 n (%)
same,TEAE: Gastrointestinal disorders,[1],0 n (%)
same,TEAE: General disorders and administration site disorders,[1],0 n (%)
same,TEAE: Infections and infestations,[1],0 n (%)
same,"TEAE: Injury, poisoning and procedural complications",[1],0 n (%)
same,TEAE: Musculoskeletal and connective tissue disorders,[1],0 n (%)
same,TEAE: Nervous system disorders,[1],2 (33.3) n (%)
same,TEAE: Psychiatric disorders,[1],0 n (%)
same,"TEAE: Respiratory, thoracic and mediastinal disorders",[1],1 (16.7) n (%)
same,Any TEAE,[2],5 (83.3) n (%)
same,TEAE: Eye disorders,[2],5 (83.3) n (%)
same,TEAE: Gastrointestinal disorders,[2],3 (50.0) n (%)
same,TEAE: General disorders and administration site disorders,[2],3 (50.0) n (%)
same,TEAE: Infections and infestations,[2],0 n (%)
same,"TEAE: Injury, poisoning and procedural complications",[2],0 n (%)
same,TEAE: Musculoskeletal and connective tissue disorders,[2],1 (16.7) n (%)
same,TEAE: Nervous system disorders,[2],4 (66.7) n (%)
same,TEAE: Psychiatric disorders,[2],1 (16.7) n (%)
same,"TEAE: Respiratory, thoracic and mediastinal disorders",[2],1 (16.7) n (%)
same,Drug-related visual disorder TEAEs,"SAD, 10 mg LSF in the fasting state",2 subjects
same,Drug-related visual disorder TEAEs,"SAD, 40 mg LSF in the fasting state",5 subjects
same,Time to spontaneous resolution of drug-related visual disorder TEAEs,"SAD, all mild",≤ 24 h
same,Onset of drug-related visual disorder TEAEs post-dose,in vivo,20 to 240 min
same,"Onset of drug-related visual disorder TEAEs, most often",in vivo,1 to 2.5 h
